pIC50: −log10 of the molar value.
target: Growth hormone secretagogue receptor type 1 (Homo sapiens, UniProt Q92847); experiment: ChEBML_72507
Source text: Inhibition of ghrelin binding to Growth hormone secretagogue receptor expressed in BHK cells

Sequence of Growth hormone secretagogue receptor type 1 (Q92847 whole entry): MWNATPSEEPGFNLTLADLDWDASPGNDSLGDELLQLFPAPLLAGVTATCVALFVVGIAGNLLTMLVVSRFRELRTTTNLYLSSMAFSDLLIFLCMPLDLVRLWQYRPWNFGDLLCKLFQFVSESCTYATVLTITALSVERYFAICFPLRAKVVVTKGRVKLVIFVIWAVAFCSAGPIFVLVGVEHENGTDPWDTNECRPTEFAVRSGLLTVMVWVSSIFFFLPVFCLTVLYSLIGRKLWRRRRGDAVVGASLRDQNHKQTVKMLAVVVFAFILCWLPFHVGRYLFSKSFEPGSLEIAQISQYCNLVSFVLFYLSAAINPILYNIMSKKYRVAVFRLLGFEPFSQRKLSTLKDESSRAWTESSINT

Question: `CN(C)C(=O)CCn1c(O)c(CCc2ccccc2)n(Cc2ccc(-c3ccccc3-c3nnn[nH]3)cc2)c1=O` [3-{(S)-2,5-Dioxo-4-phenethyl-3-[2'-(2H-tetrazol-5-yl)-biphenyl-4-ylmethyl]-imidazolidin-1-yl}-N,N-dimethyl-propionamide] was tested. Which pIC50 did it give?
Answer: The pIC50 was under 4.00.

Question: How did the pIC50 turn out when `NCCCn1c(O)c(CCc2ccccc2)n(Cc2ccc(-c3ccccc3-c3nnn[nH]3)cc2)c1=O` [(S)-3-(3-Amino-propyl)-5-phenethyl-1-[2'-(2H-tetrazol-5-yl)-biphenyl-4-ylmethyl]-imidazolidine-2,4-dione] was run?
Answer: The pIC50 was under 4.00.

Question: With `CN(C)CCCn1c(O)c(-c2ccccc2)n(Cc2ccc(-c3ccccc3-c3nnn[nH]3)cc2)c1=S` [(S)-3-(3-Dimethylamino-propyl)-5-phenyl-1-[2'-(2H-tetrazol-5-yl)-biphenyl-4-ylmethyl]-2-thioxo-imidazolidin-4-one] as the compound, how does the pIC50 read?
Answer: Its pIC50 is 4.46.

Question: How did the pIC50 turn out when `CN(C)c1ccc(-n2c(O)c(CCc3ccccc3)n(Cc3ccc(-c4ccccc4-c4nnn[nH]4)cc3)c2=S)cc1` [(S)-3-(4-Dimethylamino-phenyl)-5-phenethyl-1-[2'-(2H-tetrazol-5-yl)-biphenyl-4-ylmethyl]-2-thioxo-imidazolidin-4-one] was run?
Answer: Its pIC50 is under 4.00.

Question: `CN(C)CCCn1c(O)c(Cc2ccccc2)n(Cc2ccc(-c3ccccc3-c3nnn[nH]3)cc2)c1=S` [(S)-5-Benzyl-3-(3-dimethylamino-propyl)-1-[2'-(2H-tetrazol-5-yl)-biphenyl-4-ylmethyl]-2-thioxo-imidazolidin-4-one] was tested. Which pIC50 did it give?
Answer: Its pIC50 is 4.46.

From BindingDB's records for doi:10.1016/j.bmcl.2003.11.012 (Novo Nordisk, 2003)
